Experimental data as given in publication PMC7057948, “A genome-wide approach for identification and characterisation of metabolite-inducible systems” (Nature Communications, 2020).
Counter-ions that a name gives are not always drawn.

Key:
[1] = system: HpdR; test: cells; design: species or system Cupriavidus necator H16; RFP reporter induction by transcription factor biosensor, fluorescence normalised to cell density, relative to primary effector; settings: 6 h; relative to primary effector, C. necator, MM; read-out: % activation
Protocol: (§1) To screen the 441 combinations of inducer and biosensor for cross-reactivity, we employed an automated platform (see Methods section). Strains of C. necator harbouring the inducible systems were grown in MM and transferred to a 96-well microtiter plate format. After the inducers had been extracellularly added, cells were cultured for 6 h before RFP fluorescence and cell density were measured. […] The remaining six inducible systems were activated by one or more metabolites other than their cognate inducers. This cross-reactivity may be the result of either structural resemblance, a metabolic relationship or a combination thereof. For example, L-phenylalanine is converted into L-tyrosine by the phenylalanine 4-monooxygenase PhhA (H16_RS18365). Therefore, activation of the L-tyrosine-inducible system by L-phenylalanine is more likely to be due to biological conversion of the added compound into the primary effector rather than direct interaction of L-phenylalanine with HpdA. However, since the difference between the two molecules lies in a singly hydroxyl-group, an induction by structural resemblance cannot be entirely ruled out. The same applies to phenylglyoxylate that activated the benzoate-inducible system. Phenylglyoxylate is converted by C. necator into benzoate via a two-step reaction with benzaldehyde as intermediate compound. During the first reaction, carbon dioxide is generated that may also explain induction of the formate-inducible system by the structurally dissimilar phenylglyoxylate. Since carbon dioxide can subsequently be converted into formate, it is rational to postulate that the FdsR/PH16_RS03165-inducible system is activated in this case by its primary inducer. In addition to phenylglyoxylate, the benzoate-inducible system was activated by extracellular supplementation with cyclohexanecarboxylate and cumate. Cyclohexanecarboxylate shares both a structural resemblance to benzoate and downstream  Fig. 6 Orthogonality of inducible systems. a Cross-reactivity of a set of 21 inducible systems and their corresponding primary inducers. The heat map illustrates induction of reporter gene expression in the presence of the metabolite (in %) relative to the induction mediated by the corresponding primary effector. Measurements were taken 6 h after supplementation with inducer at a final concentration of 5 mM. Data are mean, n = 4. Source data are provided as a Source Data file. b Fluorescence output of individual cells of C. necator carrying pEH263 measured by flow cytometry. The vector pEH263 contains the 3,4-dihydroxybenzoate- and [compound left out]-inducible systems controlling expression of rfp and egfp, respectively. Fluorescence was determined in the absence of inducer (orange), in the presence of 3,4-dihydroxybenzoate (blue), [compound left out] (green), and both 3,4-dihydroxybenzoate and [compound left out] (purple). Effector concentrations correspond to their respective Km’s and fluorescence was measured 2 h after inducer addition.

[2] = system: OapR; test: cells; design: species or system Cupriavidus necator H16; RFP reporter induction by transcription factor biosensor, fluorescence normalised to cell density, relative to primary effector; settings: 6 h; relative to primary effector, C. necator, MM; read-out: % activation
Protocol: as §1

[3] = target: FdsR (Cupriavidus necator, UniProt Q0KDY4); test: cell-based
Sequence of FdsR (Q0KDY4 1-364): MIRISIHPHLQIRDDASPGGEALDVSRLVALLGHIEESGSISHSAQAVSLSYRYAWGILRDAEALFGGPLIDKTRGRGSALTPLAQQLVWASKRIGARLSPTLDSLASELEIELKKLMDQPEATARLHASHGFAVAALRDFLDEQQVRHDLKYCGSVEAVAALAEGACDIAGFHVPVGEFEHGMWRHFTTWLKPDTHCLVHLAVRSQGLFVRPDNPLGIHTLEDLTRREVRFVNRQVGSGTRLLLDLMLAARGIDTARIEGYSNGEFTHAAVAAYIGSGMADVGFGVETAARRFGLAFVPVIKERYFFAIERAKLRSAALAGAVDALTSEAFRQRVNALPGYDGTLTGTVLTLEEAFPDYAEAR
Excerpt: RFP reporter dose-response in C. necator H16, Hill fit on FdsR

[4] = system: T1, XdhR; test: RFP reporter dose-response in C. necator H16, Hill fit; format: cell-based, Cupriavidus necator; settings: inducer concentration for half-maximal activation; extracellular inducer, minimal medium, 30 °C, 80 min; whole cells with chromosomal regulator copy; read-out: Km^b
T1 construct: native full-length gene, divergent to operon starting at H16_RS05055; reporter plasmid pEH154 (plasmid assigned by list order)

[5] = target: T2, KynR (Cupriavidus necator, UniProt Q0K7Y0); test: as above; format: cell-based; settings: read-out: Km^b
T2 construct: gene H16_A2813; native full-length gene, divergent to operon starting at H16_RS14030; reporter plasmid pEH136 (plasmid assigned by list order)
T2 sequence (Q0K7Y0 1-160): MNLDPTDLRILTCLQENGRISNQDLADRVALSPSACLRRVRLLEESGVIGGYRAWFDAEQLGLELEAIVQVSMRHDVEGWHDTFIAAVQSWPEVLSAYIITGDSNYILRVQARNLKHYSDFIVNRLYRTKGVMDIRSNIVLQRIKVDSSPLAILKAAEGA
Excerpt: RFP reporter dose-response in C. necator H16, Hill fit on KynR

[6] = system: T3, HpdR; test: as above; format: cell-based, Cupriavidus necator; settings: inducer concentration for half-maximal activation; extracellular inducer, minimal medium, 30 °C, 80 min; whole cells with chromosomal regulator copy; read-out: Km^b
T3 construct: native full-length gene, divergent to operon starting at H16_RS18295; reporter plasmid pEH010 (plasmid assigned by exclusion)
Excerpt: RFP reporter dose-response in C. necator H16, Hill fit on HpdR

[7] = system: HpdA; test: cells; design: species or system Cupriavidus necator H16; RFP reporter induction by transcription factor biosensor, fluorescence normalised to cell density, relative to primary effector; settings: 6 h; relative to primary effector, C. necator, MM; read-out: % activation
Protocol: as §1

[8] = target: T4, PhhR (Cupriavidus necator, UniProt Q0K5I4); test: RFP reporter dose-response in C. necator H16, Hill fit; format: cell-based; settings: read-out: Km^b
T4 construct: native full-length gene, divergent to phhA (H16_RS18365); reporter plasmid pEH137 (plasmid assigned by list order)
T4 sequence (Q0K5I4 1-234): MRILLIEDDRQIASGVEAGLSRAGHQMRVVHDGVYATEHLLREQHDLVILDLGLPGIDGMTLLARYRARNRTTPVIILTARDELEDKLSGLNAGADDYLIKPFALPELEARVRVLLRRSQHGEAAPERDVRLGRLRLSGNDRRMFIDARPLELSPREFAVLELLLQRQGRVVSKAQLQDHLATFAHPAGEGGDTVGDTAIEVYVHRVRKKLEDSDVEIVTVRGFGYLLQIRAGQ

[9] = system: T5, HpdA; test: as above; format: cell-based, Cupriavidus necator; settings: inducer concentration for half-maximal activation; extracellular inducer, minimal medium, 30 °C, 80 min; whole cells with chromosomal regulator copy; read-out: Km^b
T5 construct: native full-length regulator gene, divergent to operon starting at H16_RS24175; reporter plasmid pEH158 (plasmid assigned by list order)
Excerpt: RFP reporter dose-response in C. necator H16, Hill fit on HpdA

[10] = system: BenM; test: cells; design: species or system Cupriavidus necator H16; RFP reporter induction by transcription factor biosensor, fluorescence normalised to cell density, relative to primary effector; settings: 6 h; relative to primary effector, C. necator, MM; read-out: % activation
Protocol: as §1

[11] = target: T6, BenM (Cupriavidus necator, UniProt Q0KAA5); test: cell-based; design: RFP reporter induction by transcription factor biosensor, single time-point fluorescence in LB, relative to primary effector; settings: Escherichia coli TOP10; relative to primary effector, E. coli, LB; read-out: % activation
T6 construct: native full-length gene, divergent to operon starting at H16_RS09790; reporter plasmid pEH148 (plasmid assigned by list order)
T6 sequence (Q0KAA5 1-305): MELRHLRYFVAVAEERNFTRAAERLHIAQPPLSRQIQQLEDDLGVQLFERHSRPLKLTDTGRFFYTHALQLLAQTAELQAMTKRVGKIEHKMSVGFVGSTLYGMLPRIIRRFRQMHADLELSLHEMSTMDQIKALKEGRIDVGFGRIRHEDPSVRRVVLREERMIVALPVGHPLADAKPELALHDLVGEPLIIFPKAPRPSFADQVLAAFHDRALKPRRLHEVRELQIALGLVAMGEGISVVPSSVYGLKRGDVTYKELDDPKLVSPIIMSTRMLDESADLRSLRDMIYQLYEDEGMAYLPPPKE
Excerpt: (§2) TRs often recognise molecules that are structurally similar to their primary effectors. For example, isopropyl β-D-1-thiogalactopyranoside is a commonly used structural analogue of allolactose, employed to control the expression of genes regulated by LacI. Here, the TR’s specificity was investigated to identify previously uncharacterised ligand–TR interactions and consequently extend the biosensor application to the detection of structurally similar or metabolically related compounds. To do so, the library of 21 native and heterologous inducible systems was screened against 46 compounds using an integrated robotic platform, as described in the previous section. […] Similarly to the former orthogonality screen (Fig. 6a), it should be noted that activation of reporter gene expression by the extracellularly added compounds likely indicates a structural resemblance to the primary ligand, a metabolic relationship or a combination thereof. To shed light on their cause of system activation, cultures of E. coli carrying the functional formate-, [compound left out]-, benzoate-, 3,4-dihydroxybenzoate-, acetoin- and β-alanine-inducible systems, active in this host organism, were evaluated for the same cross-reactivity (Supplementary Table 5).  Fig. 3 C. necator native systems mediate controllable gene expression in E. coli and P. putida. Single time-point fluorescence measurements of a, b E. coli and c, d P. putida carrying the C. necator-inducible gene expression systems composed of TR and promoter a, c or ‘promoter only’ version b, d. The plasmids harbouring the individual system– or promoter–reporter gene constructs are indicated. RFP fluorescence output was determined in the absence of inducer (light purple and light blue) and 6 h after extracellular supplementation with the corresponding primary effector to a final concentration of 5 mM (dark purple and dark blue). Data are mean ± SD, n = 3, *p < 0.05, **p < 0.01, ***p ≤ 0.001, ****p ≤ 0.0001, unpaired two-tailed t-test. Source data are provided as a Source Data file. All strains used in this study are listed in Supplementary Table 7. E. coli TOP10 (Life Technologies) was used for cloning and plasmid propagation. For single time-point fluorescence measurements and flow cytometric analyses, bacterial strains were propagated in Luria-Bertani (LB) medium. To determine the dose–responses and to evaluate inducer TR cross-reactivity, C. necator was cultivated in MM containing 1 g/L NH4Cl, 9 g/L Na2HPO4·12H2O, 1.5 g/L KH2PO4, 0.2 g/L MgSO4·7H2O, 0.02 g/L CaCl2·2H2O and 0.0012 g/L (NH4)5[Fe(C6H4O7)2] with 1 mL/L trace element solution SL7 (1.3 mL/L 25% (w/v) HCl, 0.07 g/L ZnCl2, 0.1 g/L MnCl2·4H2O, 0.062 g/L H3BO3, 0.190 g/L CoCl2·6H2O, 0.017 g/L CuCl2·2H2O, 0.024 g/L NiCl2·6H2O and 0.036 g/L Na2MoO4·2H2O) supplemented with 0.4% (w/v) sodium gluconate. If required, antibiotics were added to the growth medium at the following concentrations: 12.5 µg/mL tetracycline or 25 µg/mL chloramphenicol for E. coli, 50 µg/mL chloramphenicol for C. necator and 25 µg/mL tetracycline for P. putida. For solid media preparation, 15 g/L agar was added.

[12] = target: T7, PcaQ (Cupriavidus necator, UniProt Q0JYV0); test: RFP reporter dose-response in C. necator H16, Hill fit; format: cell-based; settings: read-out: Km^b
T7 construct: native full-length gene, divergent to operon starting at H16_RS30145; reporter plasmid pEH161 (plasmid assigned by list order)
T7 sequence (Q0JYV0 1-317): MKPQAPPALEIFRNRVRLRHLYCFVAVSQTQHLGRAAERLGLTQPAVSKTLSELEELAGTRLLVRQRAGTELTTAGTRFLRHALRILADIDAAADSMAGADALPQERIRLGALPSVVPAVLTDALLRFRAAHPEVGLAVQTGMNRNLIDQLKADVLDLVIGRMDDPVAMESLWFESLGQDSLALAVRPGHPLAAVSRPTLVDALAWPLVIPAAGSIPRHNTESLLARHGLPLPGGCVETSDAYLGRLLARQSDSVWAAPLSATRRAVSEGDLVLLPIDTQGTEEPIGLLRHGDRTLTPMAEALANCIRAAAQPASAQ

[13] = system: AcoR; test: cells; design: species or system Cupriavidus necator H16; RFP reporter induction by transcription factor biosensor, fluorescence normalised to cell density, relative to primary effector; settings: 6 h; relative to primary effector, C. necator, MM; read-out: % activation
Protocol: as §1

[14] = target: T8, AcoR (Cupriavidus necator, UniProt P28614); test: cell-based; design: RFP reporter induction by transcription factor biosensor, single time-point fluorescence in LB, relative to primary effector; settings: Escherichia coli TOP10; relative to primary effector, E. coli, LB; read-out: % activation
T8 construct: native full-length gene, divergent to operon starting at H16_RS19445; reporter plasmid pEH052 (plasmid assigned by list order)
T8 sequence (P28614 1-668): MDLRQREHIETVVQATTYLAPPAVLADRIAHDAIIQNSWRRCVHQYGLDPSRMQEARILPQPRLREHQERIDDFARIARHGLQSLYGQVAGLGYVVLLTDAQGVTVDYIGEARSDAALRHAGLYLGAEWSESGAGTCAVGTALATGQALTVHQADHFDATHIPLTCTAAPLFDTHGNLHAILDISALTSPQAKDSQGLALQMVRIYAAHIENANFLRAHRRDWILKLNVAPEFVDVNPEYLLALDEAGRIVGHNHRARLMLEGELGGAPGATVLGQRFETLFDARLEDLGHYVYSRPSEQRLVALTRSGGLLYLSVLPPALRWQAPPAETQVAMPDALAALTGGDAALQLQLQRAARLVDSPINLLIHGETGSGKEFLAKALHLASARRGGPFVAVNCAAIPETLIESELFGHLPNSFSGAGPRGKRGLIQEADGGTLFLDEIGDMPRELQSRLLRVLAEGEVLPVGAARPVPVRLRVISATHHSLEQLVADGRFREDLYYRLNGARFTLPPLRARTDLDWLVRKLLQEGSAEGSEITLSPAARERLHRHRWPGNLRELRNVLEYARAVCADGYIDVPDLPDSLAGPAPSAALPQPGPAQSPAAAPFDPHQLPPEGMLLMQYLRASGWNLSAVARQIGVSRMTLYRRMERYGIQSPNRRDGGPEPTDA
Excerpt: as §2

C=CC(=O)O [Acrylate]
activity at 5000 µM [1]: 113%
activity at 5000 µM [2]: 68%

O=CO [compound 2, Formate]
EC50 [3]: 130 ± 7 µM

O=c1[nH]c(=O)c2[nH]cnc2[nH]1 [compound 3, Xanthine]
EC50 [4]: 13 ± 1.4 µM

Nc1ccccc1C(=O)C[C@H](N)C(=O)O [compound 9, L-kynurenine]
EC50 [5]: 2640 ± 180 nM

O=C(O)CCO [compound 10, 3-Hydroxypropanoate]
EC50 [6]: 13.2 ± 1.9 µM

N[C@@H](Cc1ccccc1)C(=O)O [compound 11, L-phenylalanine]
activity at 5000 µM [7]: 77%
EC50 [8]: 16.9 ± 2.2 µM

N[C@@H](Cc1ccc(O)cc1)C(=O)O [compound 13, L-tyrosine]
EC50 [9]: 9.9 ± 2.2 µM

O=C(O)C1CCCCC1 [compound 14, Cyclohexanecarboxylate]
activity at 5000 µM [10]: 110%
activity at 5000 µM [11]: 4.3%

O=C(O)c1ccc(O)c(O)c1 [compound 16, 3,4-Dihydroxybenzoate]
EC50 [12]: 8.63 ± 0.4 µM

CC(C)c1ccc(C(=O)O)cc1 [cumate]
activity at 5000 µM [10]: 100%
activity at 5000 µM [13]: 18%
activity at 5000 µM [14]: 0%
activity at 5000 µM [11]: 2%
